Measurements taken from patent EP2170322B1, “METHODS OF MODIFYING AMYLOID ß OLIGOMERS USING NON-[…] COMPOUNDS” (Acumen Pharmaceuticals, Inc., priority 2007, dated 2009).

Target: T1, Aβ1-42 (Homo sapiens, UniProt P05067)
T1 construct: containing 0.2 µM FITC-Aβ(1-42) and 0.8 µM Aβ(1-42)
Assay: FRET assay of Aβ1-42 oligomer (ADDL) assembly inhibition
Type: biochemical
Conditions: for IC50: assay of Example 1, 0.2 µM FITC-Aβ(1-42) and 0.8 µM Aβ(1-42), 37°C, six concentrations from about 30 µM to about 0.05 µM
From the text: Fluorescence (or Förster) Resonance Energy Transfer (FRET) is a distance-dependent, non-radiative transfer of energy in which the de-excitation of one fluorophore (donor) is coupled to excitation of another fluorophore (acceptor). FRET occurs if (1) the quantum of energy emitted by a donor fluorophore corresponds to an acceptor fluorophore's excitation energy, (2) the orientations of donor and acceptor transition dipoles are nearly parallel and (3) the donor fluorescent emission spectrum overlaps the acceptor absorption spectrum. In this assay, assembly of Aβ1-42 oligomer formation is monitored by FRET using N-terminal conjugates of fluorescein-Aβ1-42 as both the donor and acceptor fluorophore (fluorescein-fluorescein Ro~ 45 Ǻ). Aβ1-42 monomers assembling into oligomeric species results in a decrease of fluorescence as the fluorescein labeled Aβ1-42 peptides become proximal to each other and FRET efficiency increases. Inhibition of Aβ1-42 assembly is observed as the absence or attenuation of fluorescein quenching. FRET and FP assays are performed in 384-well Coming Non-Binding Surface, black, opaque microtiter plates, and the assay buffer consists of 50 mM MOPS-Tris (pH 8.0) with 100 mM MgCl2. The assay volume, containing 0.2 µM FITC-Aβ(1-42) and 0.8 µM Aβ(1-42), is 50 µl and the temperature is 37°C. ADDL assembly is monitored on a Tecan GENios Pro plate reader, exciting at a wavelength of 485 nm and detecting emission at a wavelength of 515 nm. Kinetic traces are collected by recording fluorescence intensity and polarization readings every five minutes over about a three to about a six-hour time course. […] Positive control reactions contain all buffer components in the absence of added small molecule or antibody reagents. To test for ADDL assembly inhibition, the non-peptidic compound was incubated with the peptide mixture at six concentrations from about 30 µM decreasing to about 0.05 µM.

T1 sequence (P05067 672-713 limits assumed): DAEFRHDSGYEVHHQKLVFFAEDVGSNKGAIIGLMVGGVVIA

Structure (SMILES) | inhibition of Aβ1-42 monomer assembly into Aβ oligomers (standard FRET assay conditions of Example 1, comparative example, FIG 2) | IC50 | inhibition of Aβ1-42 oligomer assembly (Test Compound A ranging from 0.05 to 3 mM, FIG. 1)
NCCCS(=O)(=O)O [Alzhemed, 3-amino-1-propanesulfonic acid, reference compound] | inability |  | 
COc1ccccc1NC(=O)C(=O)N/N=C(/CC(=O)c1cccs1)C(F)(F)F [Compound 1, N-(2-Methoxy-phenyl)-2-oxo-2-{N'-[3-oxo-3-thiophen-2-yl-1-trifluoromethyl-prop-(Z)-ylidene]-hydrazino}-acetamide] |  | 3.9 µM | 
CCOC(=O)c1c(NC(=O)C(=O)N/N=C/c2cccc(OC)c2O)sc2c1CCC(C)C2 (centres unmarked) [Compound 2, 2-{[1-(2-Hydroxy-3-methoxy-phenyl)-meth-(E)-ylidene-hydrazinooxalyl]-amino}-6-methyl-4,5,6,7-tetrahydro-benzo[b]thiophene-3-carboxylic acid ethyl ester] |  | 3.5 µM | 

The next lines start with the values.

inhibition of Aβ1-42 monomer assembly into Aβ oligomers (standard FRET assay conditions of Example 1, comparative example, FIG 2) | IC50 | inhibition of Aβ1-42 oligomer assembly (Test Compound A ranging from 0.05 to 3 mM, FIG. 1) | Structure (SMILES)
 | 4.4 µM |  | CCOC(=O)c1c(NC(=O)C(=O)N/N=C/c2c(O)ccc3ccccc23)sc2c1CCC(C)C2 (centres unmarked) [Compound 3, 2-{[1-(2-Hydroxynaphthalen-1-yl)-meth-(E)-ylidene-hydrazinooxalyl]-amino}-6-methyl-4,5,6,7-tetrahydro-benzo[b]thiophene-3-carboxylic acid ethyl ester]
 | 1.1 µM | dose dependent inhibition | CCOC(=O)c1c(NC(=O)C(=O)N/N=C/c2ccccc2O)sc2c1CCC(C)C2 (centres unmarked) [Compound 4, 2-{[1-(2-Hydroxyphenyl)-meth-(E)-ylidene-hydrazinooxalyl]-amino}-6-methyl-4,5,6,7-tetrahydro-benzo[b]thiophene-3-carboxylic acid ethyl ester]
 | 3.2 µM |  | COc1ccccc1NC(=O)C(=O)N1N=C(CC(C)C)CC1(O)C(F)(F)F (centres unmarked) [Compound 5, 2-(5-hydroxy-3-isobutyl-5-(trifluoromethyl)-4,5-dihydro-1H-pyrazol-1-yl)-N-(2-methoxyphenyl)-2-oxoacetamide]
 | 3.8 µM |  | O=C(N/N=C/c1ccc2ccccc2c1O)c1ccccc1O [Compound 6]
